Data reported in publication PMC11477000, “Enantioselective Binding of Proton Pump Inhibitors to Alpha1-Acid Glycoprotein and Human Serum Albumin—A Chromatographic, Spectroscopic, and In Silico Study” (International Journal of Molecular Sciences, 2024).

What was measured:
[1] = tested on: α1-acid glycoprotein (AGP); test: HPLC on AGP-based chiral stationary phase (ChromTech Chiral-AGP column); format: binding, human; conditions: 10 mM pH 7 phosphate buffer, 25 °C
Method: HPLC using a protein-based chiral stationary phase is a fully automated method for obtaining rapid information about the binding of compounds to the respective proteins. Enantioseparation occurs in the case of unequal binding constants of the individual enantiomers to the immobilized proteins, thus allowing enantioselective binding to be characterized even when a racemic mixture was injected. As a preliminary step, the enantiospecific binding was investigated on columns containing AGP and HSA in various alcohol:buffer mixtures. A pH 7 phosphate buffer was employed as the aqueous part of the mobile phase, while for the organic part, three different alcohols were evaluated. […]
(§1) Chromatographic measurements were carried out on two separate HPLC systems. The AGP binding study was performed on a Waters 2695e chromatographic system paired with a Waters 2996 PDA detector, controlled by Empower 3 FR5 (Waters Corp., Milford, MA, USA), while the HSA binding study was performed on an Agilent 1100 HPLC system, consisting of an inline degasser (G1322A), a quaternary pump (G1311A), an automatic injector (G1329A) paired with sample thermostat (G1330A), a column thermostat (G1316A), and a diode array detector (G1315A) with Agilent Chemstation B04.03-SP2 software (Agilent, Bronnwald, Germany). For the binding studies, two protein-based chiral stationary phases were utilized. The chromatographic binding study for AGP was conducted on a ChromTech Chiral-AGP column (150 mm × 4.0 mm; ChromTech Ltd., Congleton, UK), while the binding study for HSA was performed on a Daicel Chiralpak HSA column (50 mm × 4.0 mm; Daicel Corp., Osaka, Japan). The detection wavelength was 210 nm for all measurements. The stock solutions of PPIs were prepared at a concentration of 1 mg/mL in MeOH. Subsequent dilutions were prepared using water. The injected samples were mixed and diluted from the stock solutions. The final concentration for the eutomer was 0.2 mg/mL, and for the distomer, it was 0.1 mg/mL. A volume of 2 μL was injected. To mitigate the instability of PPIs in aqueous solutions, the samples were kept at a temperature of 4 °C.

[2] = target: human serum albumin (HSA) (Homo sapiens, UniProt P02768); test: HPLC on HSA-based chiral stationary phase (Daicel Chiralpak HSA column); format: binding; conditions: HSA column, 25 °C
Method: HPLC using a protein-based chiral stationary phase is a fully automated method for obtaining rapid information about the binding of compounds to the respective proteins. Enantioseparation occurs in the case of unequal binding constants of the individual enantiomers to the immobilized proteins, thus allowing enantioselective binding to be characterized even when a racemic mixture was injected. As a preliminary step, the enantiospecific binding was investigated on columns containing AGP and HSA in various alcohol:buffer mixtures. A pH 7 phosphate buffer was employed as the aqueous part of the mobile phase, while for the organic part, three different alcohols were evaluated.
In the following step, we investigated the effect of changing some other chromatographic conditions on the protein binding. The pH of the aqueous phase influenced the protonation state of both the analyte and the proteins. It should be noted that the pH tolerance of protein-based columns is narrow due to the possible denaturation of proteins. Taking into account the guidelines of the manufacturer, three different pH values were investigated (pH 6, 6.5, and 7) at a 95:5 (v/v%) buffer:IPA eluents ratio [49]. The buffer was uniformly 10 mM phosphate. […] The effect of different buffer constituents was also evaluated. In addition to phosphate buffer, ammonium acetate, ammonium bicarbonate, and sodium citrate were tested and compared under the same conditions.
as §1

[3] = 1% EtOH, 10 mM pH 7 phosphate buffer
[4] = 1% IPA, 10 mM pH 7 phosphate buffer
[5] = 1% MeOH, 10 mM pH 7 phosphate buffer
[6] = 2.5% EtOH, 10 mM pH 7 phosphate buffer
[7] = 2.5% IPA, 10 mM pH 7 phosphate buffer
[8] = 2.5% MeOH, 10 mM pH 7 phosphate buffer
[9] = 5% EtOH, 10 mM pH 7 phosphate buffer
[10] = 5% IPA, 10 mM pH 7 phosphate buffer
[11] = 5% MeOH, 10 mM pH 7 phosphate buffer
[12] = 7.5% EtOH, 10 mM pH 7 phosphate buffer
[13] = 7.5% IPA, 10 mM pH 7 phosphate buffer
[14] = 7.5% MeOH, 10 mM pH 7 phosphate buffer
[15] = 10% EtOH, 10 mM pH 7 phosphate buffer
[16] = 10% IPA, 10 mM pH 7 phosphate buffer
[17] = 10% MeOH, 10 mM pH 7 phosphate buffer
[18] = 12.5% IPA, 10 mM pH 7 phosphate buffer

human serum albumin (HSA), sequence (P02768 25-609): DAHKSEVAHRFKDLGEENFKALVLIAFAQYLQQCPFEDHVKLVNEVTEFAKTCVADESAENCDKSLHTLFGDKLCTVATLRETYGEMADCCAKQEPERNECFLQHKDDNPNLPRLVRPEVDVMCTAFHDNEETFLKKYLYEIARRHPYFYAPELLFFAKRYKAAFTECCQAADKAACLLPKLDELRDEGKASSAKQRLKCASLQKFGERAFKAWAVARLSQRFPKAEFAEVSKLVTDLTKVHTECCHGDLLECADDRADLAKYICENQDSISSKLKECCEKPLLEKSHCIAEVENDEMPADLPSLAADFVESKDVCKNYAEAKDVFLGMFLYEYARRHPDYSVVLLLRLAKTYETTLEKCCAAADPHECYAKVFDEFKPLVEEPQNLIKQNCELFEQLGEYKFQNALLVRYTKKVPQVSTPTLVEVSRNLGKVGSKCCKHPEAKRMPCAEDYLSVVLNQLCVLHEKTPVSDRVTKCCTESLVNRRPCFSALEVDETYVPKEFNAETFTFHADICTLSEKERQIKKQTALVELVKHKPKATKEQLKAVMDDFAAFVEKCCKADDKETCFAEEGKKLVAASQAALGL

EEO enantiomer elution order [2, 3]: R < S | Rs resolution [2, 3]: 1.0 | k1 retention factor (first-eluting enantiomer) [2, 3]: 10.13 | k2 retention factor (second-eluting enantiomer) [2, 3]: 14.32 | EEO enantiomer elution order [2, 4]: R < S | Rs resolution [2, 4]: 1.8 | k1 retention factor (first-eluting enantiomer) [2, 4]: 11.17 | k2 retention factor (second-eluting enantiomer) [2, 4]: 18.27 | EEO enantiomer elution order [2, 5]: R < S | Rs resolution [2, 5]: 1.0 | k1 retention factor (first-eluting enantiomer) [2, 5]: 10.66 | k2 retention factor (second-eluting enantiomer) [2, 5]: 15.61 | EEO enantiomer elution order [2, 6]: R < S | Rs resolution [2, 6]: 0.3 | k1 retention factor (first-eluting enantiomer) [2, 6]: 6.92 | k2 retention factor (second-eluting enantiomer) [2, 6]: 8.39 | EEO enantiomer elution order [2, 7]: R < S | Rs resolution [2, 7]: 1.0 | k1 retention factor (first-eluting enantiomer) [2, 7]: 9.26 | k2 retention factor (second-eluting enantiomer) [2, 7]: 12.87 | EEO enantiomer elution order [2, 8]: R < S | Rs resolution [2, 8]: 0.8 | k1 retention factor (first-eluting enantiomer) [2, 8]: 7.92 | k2 retention factor (second-eluting enantiomer) [2, 8]: 10.16 | k1 retention factor (first-eluting enantiomer) [2, 9]: 5.26 | k2 retention factor (second-eluting enantiomer) [2, 9]: 5.26 | EEO enantiomer elution order [2, 10]: R < S | Rs resolution [2, 10]: 0.2 | k1 retention factor (first-eluting enantiomer) [2, 10]: 5.79 | k2 retention factor (second-eluting enantiomer) [2, 10]: 6.63 | EEO enantiomer elution order [2, 11]: R < S | Rs resolution [2, 11]: 0.2 | k1 retention factor (first-eluting enantiomer) [2, 11]: 6.05 | k2 retention factor (second-eluting enantiomer) [2, 11]: 7.29 | k1 retention factor (first-eluting enantiomer) [2, 12]: 4.11 | k2 retention factor (second-eluting enantiomer) [2, 12]: 4.11 | k1 retention factor (first-eluting enantiomer) [2, 13]: 4.37 | k2 retention factor (second-eluting enantiomer) [2, 13]: 4.37 | k1 retention factor (first-eluting enantiomer) [2, 14]: 4.92 | k2 retention factor (second-eluting enantiomer) [2, 14]: 4.92 | k1 retention factor (first-eluting enantiomer) [2, 15]: 3.24 | k2 retention factor (second-eluting enantiomer) [2, 15]: 3.24 | k1 retention factor (first-eluting enantiomer) [2, 16]: 3.45 | k2 retention factor (second-eluting enantiomer) [2, 16]: 3.45 | k1 retention factor (first-eluting enantiomer) [2, 17]: 4.03 | k2 retention factor (second-eluting enantiomer) [2, 17]: 4.03 | k1 retention factor (first-eluting enantiomer) [2, 18]: 2.71 | k2 retention factor (second-eluting enantiomer) [2, 18]: 2.71 | Rs resolution ([2]; acetate buffer, 1% 2-propanol): 1.8 | Rs resolution ([2]; bicarbonate buffer, 1% 2-propanol): 1.2 | Rs resolution ([2]; citrate buffer, 1% 2-propanol): 1.9 | Rs resolution ([2]; phosphate buffer, 1% 2-propanol): 1.8
Compound: Cc1c(OCC(F)(F)F)ccnc1C[S+]([O-])c1nc2ccccc2[nH]1 (centres unmarked) [Lansoprazole, lansoprazole]
k1 retention factor (first-eluting enantiomer) ([1]; 2.5% IPA): 15.75 | k2 retention factor (second-eluting enantiomer) ([1]; 2.5% IPA): 19.61 | k1 retention factor (first-eluting enantiomer) ([1]; 5% EtOH): 14.52 | k2 retention factor (second-eluting enantiomer) ([1]; 5% EtOH): 18.43 | k1 retention factor (first-eluting enantiomer) ([1]; 5% IPA): 6.88 | k2 retention factor (second-eluting enantiomer) ([1]; 5% IPA): 9.12 | k1 retention factor (first-eluting enantiomer) ([1]; 5% MeOH): 22.63 | k2 retention factor (second-eluting enantiomer) ([1]; 5% MeOH): 28.55 | k1 retention factor (first-eluting enantiomer) ([1]; 7.5% EtOH): 8.24 | k2 retention factor (second-eluting enantiomer) ([1]; 7.5% EtOH): 10.64 | k1 retention factor (first-eluting enantiomer) ([1]; 7.5% IPA): 4.00 | k2 retention factor (second-eluting enantiomer) ([1]; 7.5% IPA): 5.28 | k1 retention factor (first-eluting enantiomer) ([1]; 7.5% MeOH): 14.63 | k2 retention factor (second-eluting enantiomer) ([1]; 7.5% MeOH): 18.79 | k1 retention factor (first-eluting enantiomer) ([1]; 10% EtOH): 5.13 | k2 retention factor (second-eluting enantiomer) ([1]; 10% EtOH): 6.62 | k1 retention factor (first-eluting enantiomer) ([1]; 10% IPA): 2.67 | k2 retention factor (second-eluting enantiomer) ([1]; 10% IPA): 3.47 | k1 retention factor (first-eluting enantiomer) ([1]; 10% MeOH): 9.96 | k2 retention factor (second-eluting enantiomer) ([1]; 10% MeOH): 12.56 | k1 retention factor (first-eluting enantiomer) ([1]; 12.5% IPA): 1.95 | k2 retention factor (second-eluting enantiomer) ([1]; 12.5% IPA): 2.47 | k1 retention factor (first-eluting enantiomer) ([1]; 15% EtOH): 2.54 | k2 retention factor (second-eluting enantiomer) ([1]; 15% EtOH): 3.21 | k1 retention factor (first-eluting enantiomer) ([1]; 15% IPA): 1.48 | k2 retention factor (second-eluting enantiomer) ([1]; 15% IPA): 1.83 | k1 retention factor (first-eluting enantiomer) ([1]; 15% MeOH): 7.02 | k2 retention factor (second-eluting enantiomer) ([1]; 15% MeOH): 8.75
